Data set [1] relates to Human immunodeficiency virus 1. The data set can be described thus: Antiviral activity against Human immunodeficiency virus 1 3B infected in CEM-SS cells. Type of data set: functional, organism-based.
The subject of a further data set is CEM-SS. The experiment in a line: Cytotoxicity against Human immunodeficiency virus 1 3B infected human CEM-SS cells. The data set is classed as functional. Conditions: read-out: TC50 (the source's name).
Data set [2] in a line: Therapeutic index, TC50 for Human immunodeficiency virus 1 3B infected human CEM-SS cells to EC50 for immunodeficiency virus 1 3B. Type of data set: cell-based. Conditions: CEM-SS cells infected with HIV-1 3B, read-out: TI.

Our source for the EC50, CC50 and selectivity ratio values is ChEMBL document CHEMBL1275493, “Anti-human immunodeficiency virus type 1 activities of antimicrobial peptides derived from human and bovine cathelicidins” (Antimicrob Agents Chemother, 2008).

Peptide text beside a SMILES is read from it.

`CC[C@H](C)[C@H](NC(=O)[C@H](CCCNC(=N)N)NC(=O)[C@H](CCC(N)=O)NC(=O)[C@@H](NC(=O)[C@@H](NC(=O)[C@H](CCCNC(=N)N)NC(=O)[C@H](CCCCN)NC(=O)[C@H](Cc1ccccc1)NC(=O)CN)[C@@H](C)CC)C(C)C)C(=O)N[C@@H](CCCCN)C(=O)N[C@@H](CC(=O)O)C(=O)N[C@@H](Cc1ccccc1)C(=O)N[C@@H](CC(C)C)C(=O)N[C@@H](CCCNC(=N)N)C(=O)N[C@@H](CC(N)=O)C(=O)N[C@@H](CC(C)C)C(=O)N[C@H](C(=O)O)C(C)C`: the EC50 (as a rule, the concentration at which the effect is half-maximal) in data set [1] came to 0.98 µM. In addition, the CC50 in the data set with CEM-SS came out at 8.9 µM. Moreover, the selectivity ratio in data set [2] came out at 9.1.
Molecule `CC[C@H](C)[C@H](NC(=O)[C@H](CCCCN)NC(=O)[C@H](CCCCN)NC(=O)[C@H](Cc1ccccc1)NC(=O)[C@H](CC(C)C)NC(=O)[C@H](CCCCN)NC(=O)[C@H](CCCCN)NC(=O)[C@H](NC(=O)[C@H](CCCCN)NC(=O)[C@H](CCCCN)NC(=O)[C@H](CCCNC(=N)N)NC(=O)[C@H](NC(=O)[C@H](CCCNC(=N)N)NC(=O)[C@H](CCCCN)NC(=O)[C@H](Cc1ccccc1)NC(=O)[C@H](CCCNC(=N)N)NC(=O)CN)c1ccccc1)c1ccccc1)C(=O)N[C@@H](CO)C(=O)O` yielded an EC50 in data set [1] of 0.68 µM. Further, the CC50 in the data set on CEM-SS stood at 10.2 µM. Besides, in data set [2], the selectivity ratio came to 15.
For `CC[C@H](C)[C@H](NC(=O)[C@H](CCCNC(=N)N)NC(=O)[C@H](CCC(N)=O)NC(=O)[C@@H](NC(=O)[C@@H](NC(=O)[C@H](CCCNC(=N)N)NC(=O)[C@H](CCCCN)NC(=O)[C@@H](N)Cc1ccccc1)[C@@H](C)CC)C(C)C)C(=O)N[C@@H](CCCCN)C(=O)N[C@@H](CC(=O)O)C(=O)N[C@@H](Cc1ccccc1)C(=O)N[C@@H](CC(C)C)C(=O)N[C@@H](CCCNC(=N)N)C(=O)O` (H-FKRIVQRIKDFLR-OH) the same measures were 3.4 µM, 10.4 µM and 3.1.
As to `CC[C@H](C)[C@H](NC(=O)CN)C(=O)N[C@@H](CCCCN)C(=O)N[C@@H](CCC(=O)O)C(=O)N[C@@H](Cc1ccccc1)C(=O)N[C@@H](CCCCN)C(=O)N[C@@H](CCCNC(=N)N)C(=O)N[C@@H](CCC(=O)O)C(=O)N[C@@H](Cc1ccccc1)C(=O)N[C@@H](CCC(N)=O)C(=O)N[C@@H](CCCNC(=N)N)C(=O)N[C@H](C(=O)N[C@@H](CCCCN)C(=O)N[C@@H](CC(=O)O)C(=O)N[C@@H](Cc1ccccc1)C(=O)N[C@@H](CC(C)C)C(=O)N[C@@H](CCCNC(=N)N)C(=O)N[C@@H](CC(N)=O)C(=O)N[C@@H](CC(C)C)C(=O)N[C@H](C(=O)O)C(C)C)[C@@H](C)CC` (H-GIKEFKREFQRIKDFLRNLV-OH), in data set [1], the concentration giving a half-maximal response (EC50) is 1.6 µM. Besides, the selectivity ratio in data set [2] came out at 6.2.
Molecule `CC[C@H](C)[C@H](NC(=O)CN)C(=O)N[C@@H](CCCCN)C(=O)N[C@@H](CCC(=O)O)C(=O)N[C@@H](Cc1ccccc1)C(=O)N[C@@H](CCCCN)C(=O)N[C@@H](CCCNC(=N)N)C(=O)N[C@H](C(=O)N[C@H](C(=O)N[C@@H](CCC(N)=O)C(=O)N[C@@H](CCCNC(=N)N)C(=O)N[C@H](C(=O)N[C@@H](CCCCN)C(=O)N[C@@H](CC(=O)O)C(=O)N[C@@H](Cc1ccccc1)C(=O)N[C@@H](CC(C)C)C(=O)N[C@@H](CCCNC(=N)N)C(=O)N[C@@H](CC(N)=O)C(=O)N[C@@H](CC(C)C)C(=O)N[C@H](C(=O)O)C(C)C)[C@@H](C)CC)C(C)C)[C@@H](C)CC` (H-GIKEFKRIVQRIKDFLRNLV-OH) showed an EC50 in data set [1] of 1.08 µM. Also, in the data set on CEM-SS, the CC50 was determined as 22.7 µM. The selectivity ratio in data set [2] was found to be 21.
On to `CC[C@H](C)[C@H](NC(=O)CN)C(=O)N[C@@H](CCCCN)C(=O)N[C@@H](CCC(=O)O)C(=O)N[C@@H](Cc1c[nH]c2ccccc12)C(=O)N[C@@H](CCCCN)C(=O)N[C@@H](CCCNC(=N)N)C(=O)N[C@H](C(=O)N[C@H](C(=O)N[C@@H](CCC(N)=O)C(=O)N[C@@H](CCCNC(=N)N)C(=O)N[C@H](C(=O)N[C@@H](CCCCN)C(=O)N[C@@H](CC(=O)O)C(=O)N[C@@H](Cc1ccccc1)C(=O)N[C@@H](CC(C)C)C(=O)N[C@@H](CCCNC(=N)N)C(=O)N[C@@H](CC(N)=O)C(=O)N[C@@H](CC(C)C)C(=O)N[C@H](C(=O)O)C(C)C)[C@@H](C)CC)C(C)C)[C@@H](C)CC` (H-GIKEWKRIVQRIKDFLRNLV-OH), for which, in data set [1], the midpoint of the response, the EC50, lay at 7.4 µM. In data set [2], the selectivity ratio worked out at 3.2.
For `CC[C@H](C)[C@H](NC(=O)CN)C(=O)N[C@@H](CCCCN)C(=O)N[C@@H](CCC(N)=O)C(=O)N[C@@H](Cc1ccccc1)C(=O)N[C@@H](CCCCN)C(=O)N[C@@H](CCCNC(=N)N)C(=O)N[C@H](C(=O)N[C@H](C(=O)N[C@@H](CCC(N)=O)C(=O)N[C@@H](CCCNC(=N)N)C(=O)N[C@H](C(=O)N[C@@H](CCCCN)C(=O)N[C@@H](CC(=O)O)C(=O)N[C@@H](Cc1ccccc1)C(=O)N[C@@H](CC(C)C)C(=O)N[C@@H](CCCNC(=N)N)C(=O)N[C@@H](CC(N)=O)C(=O)N[C@@H](CC(C)C)C(=O)N[C@H](C(=O)O)C(C)C)[C@@H](C)CC)C(C)C)[C@@H](C)CC` (H-GIKQFKRIVQRIKDFLRNLV-OH) the same measures were 0.91 µM and 15.1.
`CC[C@H](C)[C@H](NC(=O)[C@H](CCCCN)NC(=O)[C@H](CCCCN)NC(=O)[C@H](Cc1ccccc1)NC(=O)[C@H](CC(C)C)NC(=O)[C@H](CCCCN)NC(=O)[C@H](CCCCN)NC(=O)[C@H](Cc1ccccc1)NC(=O)[C@H](CCCCN)NC(=O)[C@H](CCCCN)NC(=O)[C@H](CCCNC(=N)N)NC(=O)[C@H](Cc1ccccc1)NC(=O)[C@H](CCCNC(=N)N)NC(=O)[C@H](CCCCN)NC(=O)[C@H](Cc1ccccc1)NC(=O)[C@H](CCCNC(=N)N)NC(=O)CN)C(=O)N[C@@H](CO)C(=O)O` (H-GRFKRFRKKFKKLFKKIS-OH) came in with an EC50 in data set [1] of 0.35 µM. Besides, in the data set on CEM-SS, the CC50 was determined as 8.45 µM. In addition, the selectivity ratio in data set [2] was 24.1.
In turn, `CC[C@H](C)[C@H](NC(=O)[C@H](CCCCN)NC(=O)[C@H](CCC(=O)O)NC(=O)[C@H](CCCCN)NC(=O)[C@H](CO)NC(=O)[C@H](CCCCN)NC(=O)[C@H](CCCNC(=N)N)NC(=O)[C@H](CC(C)C)NC(=O)[C@H](CC(C)C)NC(=O)[C@H](CC(=O)O)NC(=O)CNC(=O)[C@H](CC(C)C)NC(=O)[C@@H](N)CC(C)C)C(=O)NCC(=O)N[C@@H](CCCCN)C(=O)N[C@@H](CCC(=O)O)C(=O)N[C@@H](Cc1ccccc1)C(=O)N[C@@H](CCCCN)C(=O)N[C@@H](CCCNC(=N)N)C(=O)N[C@H](C(=O)N[C@H](C(=O)N[C@@H](CCC(N)=O)C(=O)N[C@@H](CCCNC(=N)N)C(=O)O)C(C)C)[C@@H](C)CC` (H-LLGDLLRKSKEKIGKEFKRIVQR-OH) returned an EC50 in data set [1] greater than 35.4 µM. Besides, in the data set with CEM-SS, the CC50 is greater than 35.4 µM.
Molecule `CC[C@H](C)[C@H](NC(=O)[C@H](CCCCN)NC(=O)[C@H](CC(=O)O)NC(=O)[C@H](Cc1ccccc1)NC(=O)[C@H](CC(C)C)NC(=O)[C@@H](N)CCCNC(=N)N)C(=O)N[C@@H](CCCNC(=N)N)C(=O)N[C@@H](CCC(N)=O)C(=O)N[C@H](C(=O)N[C@H](C(=O)N[C@@H](CCCNC(=N)N)C(=O)N[C@@H](CCCCN)C(=O)N[C@@H](Cc1ccccc1)C(=O)O)[C@@H](C)CC)C(C)C` (H-RLFDKIRQVIRKF-OH) yielded an EC50 in data set [1] greater than 58.1 µM. Besides, in the data set on CEM-SS, the CC50 amounted to 33.7 µM.
